Assay results published in article PMC3411462, “Long-acting κ opioid antagonists nor-BNI, GNTI and JDTic: pharmacokinetics in mice and lipophilicity” (BMC Pharmacology, 2012).
Values joined by “and” are separate entries in the source; they are usually repeats but may differ in a detail not shown here. Equal values may be shown once. Read-outs that look alike come from different tables or passages of the source. Marks after values point to notes of the source that are not given here.

Test: Brain and plasma concentrations in mice after intraperitoneal administration (LC-MS-MS), non-compartmental analysis
Format: in vivo
Conditions: for [drug],brain (free base equivalent) / [drug],plasma (free base equivalent): listed as JDTic.2HCl.H2O
[1] = 0.5 h, 10 mg/kg i.p., individual mice, 10 mg/kg
[2] = 1 h, 10 mg/kg i.p., individual mice, 10 mg/kg
[3] = 2 h, 10 mg/kg i.p., individual mice, 10 mg/kg
[4] = 4 h, 10 mg/kg i.p., individual mice, 10 mg/kg
[5] = 24 h, 10 mg/kg i.p., individual mice, 10 mg/kg

CC(C)[C@@H](CN1CC[C@@](C)(c2cccc(O)c2)[C@@H](C)C1)NC(=O)[C@H]1Cc2ccc(O)cc2CN1 [JDTic, (3R)-7-Hydroxy-N-((1S)-1-{[(3R,4R)-4-(3-hydroxyphenyl)-3,4-dimethyl-1-piperidinyl]methyl}-2-methylpropyl)-1,2,3,4-tetrahydro-3-isoquinolinecarboxamide]
Time of maximal mean plasma level (10 mg kg^-1 i.p., mice): approximately 30 minutes
[drug],brain (free base equivalent) [1]: 66.3 ng/g and 60.3 ng/g and 155 ng/g and 37.5 ng/g and 49.5 ng/g and 57.9 ng/g
[drug],plasma (free base equivalent) [1]: 263 ng/mL and 237 ng/mL and 330 ng/mL and 248 ng/mL and 145 ng/mL
[drug],brain (free base equivalent) [2]: 61.5 ng/g and 45.3 ng/g and 38.1 ng/g and 116 ng/g and 49.2 ng/g and 56.7 ng/g
[drug],plasma (free base equivalent) [2]: 152 ng/mL and 270 ng/mL and 114 ng/mL and 126 ng/mL and 130 ng/mL and 134 ng/mL
[drug],brain (free base equivalent) [3]: 48.3 ng/g and 36.9 ng/g
[drug],plasma (free base equivalent) [3]: 57.3 ng/mL and 71 ng/mL
[drug],brain (free base equivalent) [4]: 80.4 ng/g and 46.2 ng/g
[drug],plasma (free base equivalent) [4]: 69.6 ng/mL and 40.3 ng/mL and 30 ng/mL
[drug],brain (free base equivalent) [5]: 30.3 ng/g and 32.1 ng/g
[drug],plasma (free base equivalent) [5]: <4 ng/mL
[drug],brain (free base equivalent) (48 h, 10 mg/kg i.p., individual mice, 10 mg/kg): 936* ng/g and 32.7 ng/g and 16.7 ng/g
[drug],brain (free base equivalent) (168 h, 10 mg/kg i.p., individual mice, 10 mg/kg): <12 ng/g (2×) and 43.8 ng/g
Peak unbound brain level (at 30 minutes, 10 mg kg^-1 i.p., estimate): up to 4 nM
AUMC 0-inf_obs (brain NCA, 10 mg/kg i.p.): 3158084 ng/ml*h^2
Tlag (brain NCA, 10 mg/kg i.p.): 0 h
C max,brain (brain, 10 mg kg^-1 i.p., mice): 71 ng/mL
Decline of mean plasma concentration from peak (by 24 hours, 10 mg kg^-1 i.p.): at least 98%
concentration at 4 h (male, Swiss-Webster (Crl:CFW(SW)), mouse, brain, intraperitoneal, 10 mg/kg, 4 h, 10 mg/kg, read-out: Conc (brain, NCA input)): 62.4 ng/mL
concentration at 24 h (male, Swiss-Webster (Crl:CFW(SW)), mouse, brain, intraperitoneal, 10 mg/kg, 24 h, 10 mg/kg, read-out: Conc (brain, NCA input)): 30.9 ng/mL
concentration at 48 h (male, Swiss-Webster (Crl:CFW(SW)), mouse, brain, intraperitoneal, 10 mg/kg, 48 h, 10 mg/kg, read-out: Conc (brain, NCA input)): 24.7 ng/mL
concentration at 168 h (male, Swiss-Webster (Crl:CFW(SW)), mouse, brain, intraperitoneal, 10 mg/kg, 168 h, 10 mg/kg, read-out: Conc (brain, NCA input)): 18.6 ng/mL
concentration at 4 h (male, Swiss-Webster (Crl:CFW(SW)), mouse, brain, ip, 10 mg/kg, 4 h, 10 mg/kg i.p., individual mice, read-out: [drug],brain (free base equivalent)): 60.6 ng/g
concentration at 4 h (male, Swiss-Webster (Crl:CFW(SW)), mouse, brain, ip, 10 mg/kg, 4 h, 10 mg/kg i.p., read-out: mean (brain)): 62.4 ng/g
concentration at 24 h (male, Swiss-Webster (Crl:CFW(SW)), mouse, brain, ip, 10 mg/kg, 24 h, 10 mg/kg i.p., individual mice, read-out: [drug],brain (free base equivalent)): 30.3 ng/g
concentration at 24 h (male, Swiss-Webster (Crl:CFW(SW)), mouse, brain, ip, 10 mg/kg, 24 h, 10 mg/kg i.p., read-out: mean (brain)): 30.9 ng/g
concentration at 48 h (male, Swiss-Webster (Crl:CFW(SW)), mouse, brain, ip, 10 mg/kg, 48 h, 10 mg/kg i.p., outlier excluded, read-out: mean (brain)): 24.7 ng/g
concentration at 168 h (male, Swiss-Webster (Crl:CFW(SW)), mouse, brain, ip, 10 mg/kg, 168 h, 10 mg/kg i.p., <MRC substituted by MRC/2, read-out: mean (brain)): 18.6 ng/g
AUC(0-inf) (male, Swiss-Webster (Crl:CFW(SW)), mouse, brain, ip, 10 mg/kg, brain NCA, 10 mg/kg i.p., read-out: AUC 0-inf_obs): 10300 ng·h/mL
Kp uu (male, Swiss-Webster (Crl:CFW(SW)), mouse, brain/plasma (unbound), ip, supplement, 10 mg/kg i.p., read-out: Kp,uu,brain (AUC0–∞,brain,u / AUC0–∞,p,u)): < 1.42
Kp (male, Swiss-Webster (Crl:CFW(SW)), mouse, brain/plasma, ip, 10 mg/kg, supplement, 10 mg/kg i.p., read-out: Kp,brain (AUC0–∞,brain / AUC0–∞,p)): 11.6
MRT inf (male, Swiss-Webster (Crl:CFW(SW)), mouse, ip, brain NCA, 10 mg/kg i.p., read-out: MRT 0-inf_obs): 12.8 days
Kp uu (male, Swiss-Webster, mouse, brain and plasma (unbound), ip, 10 mg kg^-1, 10 mg kg^-1 i.p., mice, read-out: K p,uu,brain (AUC0–∞,brain,u/AUC0–∞,p,u)): ≤ 1.4
Kp uu (male, Swiss-Webster, mouse, brain and plasma (unbound), ip, 10 mg/kg, 10 mg kg^-1 i.p., mice, read-out: Cmax,brain,u/Cmax,p,u): < 0.04
Kp (male, Swiss-Webster, mouse, brain and plasma, ip, 10 mg kg^-1, 10 mg kg^-1 i.p., mice, read-out: K p,brain (AUC0–∞,brain/AUC0–∞,p)): 11.6
Kp (male, Swiss-Webster, mouse, brain and plasma, ip, 10 mg/kg, 10 mg kg^-1 i.p., mice, read-out: Cmax,brain/Cmax,p): 0.29
concentration at 0.5 h (male, Swiss-Webster, mouse, brain, intraperitoneal, 10 mg/kg, 0.5 h, 10 mg/kg, read-out: Conc (brain, NCA input)): 71.1 ng/mL
concentration at 1 h (male, Swiss-Webster, mouse, brain, intraperitoneal, 10 mg/kg, 1 h, 10 mg/kg, read-out: Conc (brain, NCA input)): 61.1 ng/mL
concentration at 2 h (male, Swiss-Webster, mouse, brain, intraperitoneal, 10 mg/kg, 2 h, 10 mg/kg, read-out: Conc (brain, NCA input)): 38.4 ng/mL
half-life (male, Swiss-Webster, mouse, brain, ip, 10 mg/kg, 10 mg kg^-1 i.p., mice, read-out: Terminal half-life in brain (converted)): ~9 days
concentration at 0.5 h (male, Swiss-Webster, mouse, brain, ip, 10 mg/kg, 0.5 h, 10 mg/kg i.p., read-out: mean (brain)): 71.1 ng/g
concentration at 1 h (male, Swiss-Webster, mouse, brain, ip, 10 mg/kg, 1 h, 10 mg/kg i.p., read-out: mean (brain)): 61.1 ng/g
concentration at 2 h (male, Swiss-Webster, mouse, brain, ip, 10 mg/kg, 2 h, 10 mg/kg i.p., individual mice, read-out: [drug],brain (free base equivalent)): 30 ng/g
